# In patent publication US20210244791A1, “APPLICATION OF PEDF-DERIVED SHORT PEPTIDES IN TENDON HEALING” (BRIM Biotechnology, Inc., priority 2018, published 2021):
# System: injured Achilles tendon
# Assay: Rat model of Achilles tendon injury, histology (H&E) and histopathological score
# Assay type: in vivo
# Settings: 1 week postoperative
# Text: Representative micrographs of the histopathological analysis by H&E staining. H&E-stained sections in higher magnification show uninjured tendon tissue with a relative scarcity of cells among the collagen fibers.
# (A) Representative H&E-stained longitudinal sections in higher magnification show the nuclei morphologies in uninjured tendon tissue and injured tendon treated with vehicle/alginate and 29-mer/alginate for 1 week. (B) Histopathological scores. Total scores were determining by fiber structure, fiber arrangement, rounding of the nuclei, resident cell density and inflammation (infiltration of inflammatory cells, neovascularization and fatty deposits). Data are reported as mean±SE. *P<0.0005 versus vehicle/alginate-treated tendon; ^#P<0.05 versus 29-mer/alginate-treated tendon.
# To investigate the effects of the 29-mer peptide on tendon healing, a rat model of Achilles tendon injury was established as reported by Orhan et al. (The effect of extracorporeal shock waves on a rat model of injury to tendon Achilles. A histological and biomechanical study. J. Bone Joint Surg. Br. 2004;.86(4):.613-618). Adult 10-week-old male Sprague-Dawley rats (initial body weight=312±11 g) were anesthetized by an intraperitoneal injection of xylazine (10 mg/kg). Then, the left tendo Achilles injury was created by full-thickness insertion of an 18-G needle through tendo Achilles 1 cm proximal to the calcaneum attachment site. This created a horizontal wound that was flanked by intact tendon tissue to prevent the retraction of severed ends. The skin incision was closed after the wound was irrigated with sterile saline. Treatments were applied to area around the tendon lesion by subcutaneous injection with 150 μl of alginate gel mixed with 100 μM 29-mer or DMSO vehicle (six rats per experimental condition).
# The tendon and surrounding soft tissue were dissected. Specimens were fixed in a 4% paraformaldehyde (PFA) solution and then were embedded in paraffin blocks. Sections (5 μm in thickness) were longitudinally cut and stained with hematoxylin and eosin (H&E) or used for immunohistochemical examination. 36 sections per tendon were carefully prepared so as to include the most severely degenerated area. Images were captured using a Nikon Eclipse 80i microscope (Nikon Corporation, Tokyo, Japan) equipped with a Leica DC 500 camera (Leica Microsystems, Wetzlar, Germany). Four sections of each sample containing injured tendon tissues were selected and evaluated by two blinded observers to assess the tendon morphology according to a modified semi-quantitative grading score from 0 to 3 proposed by Chen et al. (Tendon derived stem cells promote platelet-rich plasma healing in collagenase-induced rat Achilles tendinopathy. Cell Physiol. Biochem., 2014; 34(6): 2153-68). The scores analyzed the fiber structure (0-3), fiber arrangement (0-3), rounding of the nuclei (0-3), resident cell density (0-3), and inflammation (0-3; infiltration of inflammatory cells, neovascularization and fatty deposits). According to this grading system, a perfectly normal tendon obtained a score of 0, whereas a score of 15 was assigned to maximally abnormal tendons.
# To investigate the therapeutic effect of the 29-mer peptide on injured tendon, a rat model of Achilles tendon injury was established by full-thickness insertion of an 18-G needle through the tendon Achilles. We delivered the 29-mer in a 150 μl alginate gel, which releases 90% loaded 29-mer in 5 days as described in a previous protocol (Ho et al., PEDF-derived peptide promotes skeletal muscle regeneration through its mitogenic effect on muscle progenitor cells. Am J Physiol. Cell Physiol. 2015 Aug. 1; 309(3): C159-68).
sequence,measurement,setting,value
"SLGAEQRTESIIHRALYYDLISSPDIHGT (listed as Homo sapiens) [29-mer, PEDF-derived short peptide, human PEDF residues 93-121]",total histopathological score,"peptide/alginate gel, 0 = normal tendon, 15 = maximally abnormal, vehicle/alginate 12.7±0.6",7.9±0.4
same,histological appearance of treated tendon (H&E staining),subcutaneous 150 μl alginate gel with 100 μM peptide,uniform appearance of well-aligned collagen fibers
